Results from ChEMBL document CHEMBL3217625, “Syntheses of a new class of phenyl butyraldehyde-derived amines with in vitro trypanocide activities” (Medchemcomm, 2012).
Active and inactive are the calls of the source. The rule behind the calls is not given here.

Columns and labels:
Trypanothione reductase [1] = molecular target: T1, Trypanothione reductase (Trypanosoma cruzi, UniProt P28593); test: Time-dependent inhibition of Trypanosoma cruzi trypanothione reductase assessed as stabilization of enzyme-inhibitor complexes using TS2 as substrate by DTNB-coupled assay; conditions: read-out: Ki(app)
T1 sequence (P28593 whole entry): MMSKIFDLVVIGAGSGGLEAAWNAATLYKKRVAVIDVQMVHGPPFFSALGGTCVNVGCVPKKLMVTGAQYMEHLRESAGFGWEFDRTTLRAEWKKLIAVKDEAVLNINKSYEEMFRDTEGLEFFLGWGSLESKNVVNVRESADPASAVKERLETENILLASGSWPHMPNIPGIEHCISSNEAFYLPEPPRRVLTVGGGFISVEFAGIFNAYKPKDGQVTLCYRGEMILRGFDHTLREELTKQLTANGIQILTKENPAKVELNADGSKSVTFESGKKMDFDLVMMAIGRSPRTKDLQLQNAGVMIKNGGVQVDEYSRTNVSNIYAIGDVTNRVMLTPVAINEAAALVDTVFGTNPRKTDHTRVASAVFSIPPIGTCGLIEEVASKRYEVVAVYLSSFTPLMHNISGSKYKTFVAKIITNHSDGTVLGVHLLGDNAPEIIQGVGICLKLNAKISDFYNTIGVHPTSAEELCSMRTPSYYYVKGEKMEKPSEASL

Trypanothione reductase [2] = molecular target: T1, Trypanothione reductase; test: Time-dependent inhibition of Trypanosoma cruzi trypanothione reductase assessed as dissociation constants for enzyme-inhibitor binding using TS2 as substrate by DTNB-coupled assay; conditions: read-out: Ki(app)
Trypanosoma cruzi [3] = test: Antiparasitic activity against Trypanosoma cruzi strain CL Brener epimastigotes assessed as growth inhibition after 72 hrs by neubauer chamber analysis; format: functional, organism-based
HeLa [4] = test: Cytotoxicity against human HeLa cells assessed as inhibition of cell proliferation at 5 ug/ml after 48 hrs by MTT assay; format: cell-based
HeLa [5] = test: Cytotoxicity against human HeLa cells assessed as inhibition of cell proliferation at 5 to 10 ug/ml after 48 hrs by MTT assay; format: cell-based
[6] = molecular target: Trypanothione reductase (Trypanosoma cruzi) (UniProt P28593); test: Time-dependent inhibition of Trypanosoma cruzi trypanothione reductase using TS2 as substrate by DTNB-coupled assay
Sequence of Trypanothione reductase (Trypanosoma cruzi) (P28593 whole entry, looked up): as the sequence (P28593 whole entry) above

Trypanosoma cruzi [7] = test: Antiparasitic activity against Trypanosoma cruzi strain CL Brener epimastigotes assessed as growth inhibition at 4 ug/ml after 72 hrs by neubauer chamber analysis in presence of 20 uM H2O2 (Rvb= 3%); format: functional
Trypanosoma cruzi [8] = test: Antiparasitic activity against Trypanosoma cruzi strain CL Brener epimastigotes assessed as growth inhibition at 4 ug/ml after 72 hrs by neubauer chamber analysis; format: functional; conditions: read-out: GI
Trypanosoma cruzi [9] = test: Antiparasitic activity against Trypanosoma cruzi strain CL Brener epimastigotes assessed as growth inhibition at 6 ug/ml after 72 hrs by neubauer chamber analysis in presence of 5 uM H2O2 (reference value: 0%); format: functional
Trypanosoma cruzi [10] = test: Antiparasitic activity against Trypanosoma cruzi strain CL Brener epimastigotes assessed as growth inhibition at 6 ug/ml after 72 hrs by neubauer chamber analysis in presence of 20 uM H2O2 (Rvb= 8%); format: functional
Trypanosoma cruzi [11] = test: Antiparasitic activity against Trypanosoma cruzi strain CL Brener epimastigotes assessed as growth inhibition at 6 ug/ml after 72 hrs by neubauer chamber analysis in presence of 10 uM H2O2 (Rvb= 7%); format: functional
Trypanosoma cruzi [12] = test: Antiparasitic activity against Trypanosoma cruzi strain CL Brener epimastigotes assessed as growth inhibition at 6 ug/ml after 72 hrs by neubauer chamber analysis; format: functional; conditions: read-out: GI
Trypanosoma cruzi [13] = test: Antiparasitic activity against Trypanosoma cruzi strain CL Brener epimastigotes assessed as growth inhibition at 4 ug/ml after 72 hrs by neubauer chamber analysis in presence of 5 uM H2O2 (reference value: 4%); format: functional
Trypanosoma cruzi [14] = test: Antiparasitic activity against Trypanosoma cruzi strain CL Brener epimastigotes assessed as growth inhibition at 4 ug/ml after 72 hrs by neubauer chamber analysis in presence of 10 uM H2O2 (Rvb= 0%); format: functional
[15] = molecular target: Trypanothione reductase (Trypanosoma cruzi) (UniProt P28593); test: Reversible competitive slow-binding inhibition of Trypanosoma cruzi trypanothione reductase using TS2 as substrate by DTNB-coupled assay; conditions: TDE = time-dependent effect

For `Nc1nc(N)nc(Nc2ccc([As]=O)cc2)n1` (stereo not drawn) [MELARSEN OXIDE], the Ki (Trypanothione reductase [1]) was 1.4 µM and the Ki (Trypanothione reductase [2]) was 18 µM.

For `C=CCc1cc(C)c(O)c(C)c1CCCCN(CCCCc1c(CC=C)cc(C)c(O)c1C)Cc1ccccc1`, the IC50 (Trypanosoma cruzi [3]) was 19.8 µM and the Activity (HeLa [4]) was “Non-toxic”.

`Cc1cc(C)c(CCCC=O)c(C)c1O` gave an IC50 (Trypanosoma cruzi [3]) of 485 µM.

With `Cc1cc(C)c(CCCCNCc2ccccc2)c(C)c1O` the Activity (HeLa [5]) was “Toxic”, the inhibition [6] was “inactive” and the IC50 (Trypanosoma cruzi [3]) was 10.1 µM.

Work on `O=C1CC[C@]23/C=C/C(=O)NCCCCNCCCNC(=O)/C=C\c4ccc(c2c4)O[C@@H]3C1` yielded a Ki (Trypanothione reductase [1]) of 114 µM and a Ki (Trypanothione reductase [2]) of 304 µM.

With `Cc1cc(C)c(CCCCN(CCCCc2c(C)cc(C)c(O)c2C)Cc2ccccc2)c(C)c1O` the “growth inhibition (GI)” value (Trypanosoma cruzi [7]) was 50%, the Ki (Trypanothione reductase [1]) was 37 µM and the inhibition of growth at 4 µg/mL (Trypanosoma cruzi [8]) was 50%. The Ki (Trypanothione reductase [2]) was 288 µM, the “growth inhibition (GI)” value (Trypanosoma cruzi [9]) was 58% and the “growth inhibition (GI)” value (Trypanosoma cruzi [10]) was 53%. The “growth inhibition (GI)” value (Trypanosoma cruzi [11]) was 58%, the inhibition of growth at 6 µg/mL (Trypanosoma cruzi [12]) was 49% and the “growth inhibition (GI)” value (Trypanosoma cruzi [13]) was 48%. The “growth inhibition (GI)” value (Trypanosoma cruzi [14]) was 52%, the inhibition [15] was “tde” and the IC50 (Trypanosoma cruzi [3]) was 8 µM. The Activity (HeLa [4]) was “Non-toxic”.

For `CCCNCCCCc1c(C)cc(C)c(O)c1C`, the IC50 (Trypanosoma cruzi [3]) was 55.8 µM.

`CCCN(CCCCc1c(C)cc(C)c(O)c1C)CCCCc1c(C)cc(C)c(O)c1C` was tested, and the IC50 (Trypanosoma cruzi [3]) was 52.3 µM.

`O=C(Cn1ccnc1[N+](=O)[O-])NCc1ccccc1` [BENZNIDAZOLE] was tested, and the IC50 (Trypanosoma cruzi [3]) was 10 µM and the Activity (HeLa [4]) was “Non-toxic”.

`c1ccc(CCCNCc2ccccc2)cc1` was tested, and the IC50 (Trypanosoma cruzi [3]) was 104 µM.

`c1ccc(CCCN(CCCc2ccccc2)Cc2ccccc2)cc1` showed an IC50 (Trypanosoma cruzi [3]) of 34.6 µM.

`CCCNCCCc1ccccc1` showed an IC50 (Trypanosoma cruzi [3]) of 241 µM.

`C=CCc1cc(C)c(O)c(C)c1CCCCNCc1ccccc1` was tested, and the IC50 (Trypanosoma cruzi [3]) was 183 µM.

With `CCCN(CCCc1ccccc1)CCCc1ccccc1` the IC50 (Trypanosoma cruzi [3]) was 18.6 µM and the Activity (HeLa [4]) was “Non-toxic”.
